The target of data set [1] is T1, Organic anion transporter 3 (Rattus norvegicus, UniProt Q9R1U7).
T1 sequence (Q9R1U7 whole entry): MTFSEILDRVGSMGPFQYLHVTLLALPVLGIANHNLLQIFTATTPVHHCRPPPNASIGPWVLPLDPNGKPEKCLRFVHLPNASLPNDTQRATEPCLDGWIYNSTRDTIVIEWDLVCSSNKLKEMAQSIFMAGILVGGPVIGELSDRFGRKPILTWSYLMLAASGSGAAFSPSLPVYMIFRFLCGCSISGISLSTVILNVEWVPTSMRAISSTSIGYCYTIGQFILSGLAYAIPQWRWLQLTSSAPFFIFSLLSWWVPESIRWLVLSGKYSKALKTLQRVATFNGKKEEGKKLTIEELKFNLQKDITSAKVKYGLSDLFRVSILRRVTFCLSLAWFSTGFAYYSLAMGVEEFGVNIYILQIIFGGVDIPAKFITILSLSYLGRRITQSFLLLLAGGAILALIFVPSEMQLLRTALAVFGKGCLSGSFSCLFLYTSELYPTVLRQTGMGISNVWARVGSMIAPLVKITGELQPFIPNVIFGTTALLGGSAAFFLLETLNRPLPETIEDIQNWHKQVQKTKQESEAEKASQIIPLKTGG
Nature of the data set: TP_TRANSPORTER: inhibition of E1S uptake (E1S: 40 uM, ICG: 1000 uM) in Xenopus laevis oocytes. In kind it is functional, cell-based. Conditions: oocyte.

For data set [2], the target named is T1, Organic anion transporter 3. Nature of the data set: TP_TRANSPORTER: inhibition of E1S uptake (E1S: 40 uM, Indomethacin: 1000 uM) in Xenopus laevis oocytes. In kind it is functional, cell-based. Conditions: oocyte.
The target is the same in data set [3]. The experiment in a line: TP_TRANSPORTER: inhibition of E1S uptake (E1S: 40 uM, MTX: 1000 uM) in Xenopus laevis oocytes. In kind it is functional, cell-based. To be noted: oocyte.
For data set [4] the target is unchanged. Nature of the data set: TP_TRANSPORTER: inhibition of E1S uptake (E1S: 40 uM, Malatonin: 1000 uM) in Xenopus laevis oocytes. To be noted: oocyte. In kind it is functional, cell-based.
Data set [5] has the same target. Nature of the data set: TP_TRANSPORTER: inhibition of E1S uptake (E1S: 40 uM, Furosemide: 1000 uM) in Xenopus laevis oocytes. To be noted: oocyte. In kind it is functional, cell-based.
Data set [6] shares this target. The experiment in a line: (§1) TP_TRANSPORTER: uptake in Xenopus laevis oocytes. In kind it is functional, cell-based, Oocyte. Conditions: oocyte.
Data set [7] has the same target. Nature of the data set: TP_TRANSPORTER: inhibition of E1S uptake (E1S: 40 uM, AZT: 1000 uM) in Xenopus laevis oocytes. The format is functional, cell-based. To be noted: oocyte.
The target is the same in data set [8]. Nature of the data set: TP_TRANSPORTER: inhibition of E1S uptake (E1S: 40 uM, Bumetanide: 1000 uM) in Xenopus laevis oocytes. In kind it is functional, cell-based. Conditions: oocyte.
For data set [9] the target is unchanged. The experiment in a line: TP_TRANSPORTER: inhibition of E1S uptake (E1S: 40 uM, BSP: 1000 uM) in Xenopus laevis oocytes. In kind it is functional, cell-based. To be noted: oocyte.
For data set [10] the target is unchanged. The experiment in a line: TP_TRANSPORTER: inhibition of E1S uptake (E1S: 40 uM, Cefoperazone: 1000 uM) in Xenopus laevis oocytes. The format is functional, cell-based. Conditions: oocyte.
Data set [11] shares this target. The experiment in a line: TP_TRANSPORTER: inhibition of E1S uptake (E1S: 40 uM, Probenecid: 1000 uM) in Xenopus laevis oocytes. In kind it is functional, cell-based. Conditions: oocyte.
Data set [12] has as its target T2, Organic anion transporter 3 (OAT3) (Rattus norvegicus, UniProt Q9R1U7).
T2 sequence (Q9R1U7 whole entry): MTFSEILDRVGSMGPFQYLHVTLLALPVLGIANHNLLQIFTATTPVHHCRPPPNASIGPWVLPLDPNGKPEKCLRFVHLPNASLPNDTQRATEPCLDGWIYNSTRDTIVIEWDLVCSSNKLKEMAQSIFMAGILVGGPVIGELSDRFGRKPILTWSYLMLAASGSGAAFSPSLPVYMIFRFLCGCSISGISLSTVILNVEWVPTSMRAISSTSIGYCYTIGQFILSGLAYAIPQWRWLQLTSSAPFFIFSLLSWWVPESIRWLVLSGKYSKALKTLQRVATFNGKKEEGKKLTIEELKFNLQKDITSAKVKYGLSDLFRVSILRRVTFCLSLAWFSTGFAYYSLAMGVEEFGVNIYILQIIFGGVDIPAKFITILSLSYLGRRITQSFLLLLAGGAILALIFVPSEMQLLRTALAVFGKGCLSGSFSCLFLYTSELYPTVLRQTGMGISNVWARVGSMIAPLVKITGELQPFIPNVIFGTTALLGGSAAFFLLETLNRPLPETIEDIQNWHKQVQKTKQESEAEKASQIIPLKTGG
The description is as §1. The format is functional, cell-based, Oocyte.

Data set [13] concerns the target T1, Organic anion transporter 3. The experiment in a line: TP_TRANSPORTER: inhibition of E1S uptake (E1S: 40 uM, DIDS: 1000 uM) in Xenopus laevis oocytes. Conditions: oocyte. The format is functional, cell-based.
Data set [14] shares this target. Nature of the data set: TP_TRANSPORTER: inhibition of E1S uptake (E1S: 40 uM, Piroxicam: 1000 uM) in Xenopus laevis oocytes. In kind it is functional, cell-based. Conditions: oocyte.
For data set [15] the target is unchanged. Nature of the data set: TP_TRANSPORTER: inhibition of E1S uptake (E1S: 40 uM, Ouabain: 1000 uM) in Xenopus laevis oocytes. The format is functional, cell-based. Conditions: oocyte.
Substrate in data set [16]: C[C@]12CC[C@@H]3c4ccc(OS(=O)(=O)O)cc4CC[C@H]3[C@@H]1CCC2=O
The description is as §1. The format is functional, cell-based, Oocyte.

Substrate in data set [17]: Nc1ccc(C(=O)NCC(=O)O)cc1
The data set is described as §1. The format is functional, cell-based, Oocyte.

Turning to `CC1(C)C(/C=C/C=C/C=C/C=C2/N(CCCCS(=O)(=O)[O-])c3ccc4ccccc4c3C2(C)C)=[N+](CCCCS(=O)(=O)[O-])c2ccc3ccccc3c21.[Na+]` [INDOCYANINE GREEN], in data set [1], the Activity entry is “inhibitor [(at a rough estimate) 20 % of control]”. With `COc1ccc2c(c1)c(CC(=O)O)c(C)n2C(=O)c1ccc(Cl)cc1` [INDOMETHACIN], the Activity entry in [2] was “is not an inhibitor [-]”. For the molecule `CN(Cc1cnc2nc(N)nc(N)c2n1)c1ccc(C(=O)N[C@@H](CCC(=O)O)C(=O)O)cc1` [METHOTREXATE], in data set [3], the Activity result is “inhibitor [(at a rough estimate) 35 % of control]”. Regarding `COc1ccc2[nH]cc(CCNC(C)=O)c2c1` [MELATONIN], the Activity entry in [4] is “inhibitor [(at a rough estimate) 10 % of control]”.

On to `NS(=O)(=O)c1cc(C(=O)O)c(NCc2ccco2)cc1Cl` [FUROSEMIDE], for which the Activity entry in [5] is “inhibitor [(at a rough estimate) 10 % of control]”.

Turning to `CN/C(=N/CCSCc1nc[nH]c1C)NC#N` [CIMETIDINE], the Activity result in data set [6] was “substrate [+]”. Turning to `Cc1cn([C@H]2C[C@H](N=[N+]=[N-])[C@@H](CO)O2)c(=O)[nH]c1=O` [ZIDOVUDINE], the Activity result in [7] is “inhibitor [(at a rough estimate) 20 % of control]”. Regarding `CCCCNc1cc(C(=O)O)cc(S(N)(=O)=O)c1Oc1ccccc1` [BUMETANIDE], the Activity entry in data set [8] is “inhibitor [(at a rough estimate) 20 % of control]”.

For the molecule `O=C1OC(c2ccc(O)c(S(=O)(=O)[O-])c2)(c2ccc(O)c(S(=O)(=O)[O-])c2)c2c(Br)c(Br)c(Br)c(Br)c21.[Na+].[Na+]` [SULFOBROMOPHTHALEIN SODIUM], in data set [9], the Activity entry was “inhibitor [(at a rough estimate) 5 % of control]”. With `CCN1CCN(C(=O)N[C@@H](C(=O)N[C@@H]2C(=O)N3C(C(=O)O)=C(CSc4nnnn4C)CS[C@H]23)c2ccc(O)cc2)C(=O)C1=O` [CEFOPERAZONE], in [10], the Activity entry was “inhibitor [(at a rough estimate) 40 % of control]”. As for `CCCN(CCC)S(=O)(=O)c1ccc(C(=O)O)cc1` [PROBENECID], the Activity result in data set [11] was “inhibitor [(at a rough estimate) 15 % of control]”. Take `C[C@@H]1Cc2c(Cl)cc(C(=O)N[C@@H](Cc3ccccc3)C(=O)O)c(O)c2C(=O)O1` [3R14S-OCHRATOXIN A]: in data set [12], the Michaelis-Menten constant (Km) was 0.739 µM. `O=S(=O)(O)c1cc(N=C=S)ccc1/C=C/c1ccc(NC=S)cc1S(=O)(=O)O`: the Activity result in [13] is “inhibitor [(at a rough estimate) 10 % of control]”.

`CN1C(C(=O)Nc2ccccn2)=C(O)c2ccccc2S1(=O)=O` [PIROXICAM]: the Activity entry in [14] is “inhibitor [(at a rough estimate) 10 % of control]”.

Consider `C[C@@H]1O[C@@H](O[C@H]2C[C@@H](O)[C@]3(CO)[C@H]4[C@H](O)C[C@]5(C)[C@@H](C6=CC(=O)OC6)CC[C@]5(O)[C@@H]4CC[C@]3(O)C2)[C@H](O)[C@H](O)[C@H]1O` [OUABAIN], for which the Activity result in [15] is “is not an inhibitor [-]”.

B1: Organic anion transporter 3 (Rattus norvegicus) (protein)
chain: MTFSEILDRVGSMGPFQYLHVTLLALPVLGIANHNLLQIFTATTPVHHCRPPPNASIGPWVLPLDPNGKPEKCLRFVHLPNASLPNDTQRATEPCLDGWIYNSTRDTIVIEWDLVCSSNKLKEMAQSIFMAGILVGGPVIGELSDRFGRKPILTWSYLMLAASGSGAAFSPSLPVYMIFRFLCGCSISGISLSTVILNVEWVPTSMRAISSTSIGYCYTIGQFILSGLAYAIPQWRWLQLTSSAPFFIFSLLSWWVPESIRWLVLSGKYSKALKTLQRVATFNGKKEEGKKLTIEELKFNLQKDITSAKVKYGLSDLFRVSILRRVTFCLSLAWFSTGFAYYSLAMGVEEFGVNIYILQIIFGGVDIPAKFITILSLSYLGRRITQSFLLLLAGGAILALIFVPSEMQLLRTALAVFGKGCLSGSFSCLFLYTSELYPTVLRQTGMGISNVWARVGSMIAPLVKITGELQPFIPNVIFGTTALLGGSAAFFLLETLNRPLPETIEDIQNWHKQVQKTKQESEAEKASQIIPLKTGG
For B1, the figures for the Km in [16] and in [17] were 2.34 µM and 64.7 µM, respectively.

The record behind these values is ChEMBL document CHEMBL2073979, “Molecular cloning and characterization of a new multispecific organic anion transporter from rat brain” (J Biol Chem, 1999).
